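Compound exposure: 48 hours, 5 concentrations, 96-well plates. The concentration for full growth arrest is given as TGI.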
Key:
Assay in all cases: NCI anticancer screen, dose series, 48 h
UO-31 renal = tested on: UO-31 renal
OVCAR-5 ovarian = tested on: OVCAR-5 ovarian
IGROV1 ovarian = tested on: IGROV1 ovarian
MDA-MB-231 breast = tested on: MDA-MB-231 breast
MDA-MB-435 = tested on: MDA-MB-435
KM12 colon = tested on: KM12 colon
OVCAR-4 ovarian = tested on: OVCAR-4 ovarian
HS 578T breast = tested on: HS 578T breast
SF-295 CNS = tested on: SF-295 CNS
SK-MEL-28 melanoma = tested on: SK-MEL-28 melanoma
HCT-15 colon = tested on: HCT-15 colon
HCT-116 colon = tested on: HCT-116 colon
NCI/ADR-RES ovarian = tested on: NCI/ADR-RES ovarian
COLO 205 colon = tested on: COLO 205 colon
HL-60(TB) leukemia = tested on: HL-60(TB) leukemia
MCF7 breast = tested on: MCF7 breast
SW-620 colon = tested on: SW-620 colon
NCI-H23 lung = tested on: NCI-H23 lung
PC-3 prostate = tested on: PC-3 prostate
SK-OV-3 ovarian = tested on: SK-OV-3 ovarian
EKVX NSCLC = tested on: EKVX NSCLC
K-562 leukemia = tested on: K-562 leukemia
BT-549 breast = tested on: BT-549 breast
SR leukemia = tested on: SR leukemia
SNB-75 CNS = tested on: SNB-75 CNS
A549 NSCLC = tested on: A549 NSCLC
UACC-257 melanoma = tested on: UACC-257 melanoma
OVCAR-3 ovarian = tested on: OVCAR-3 ovarian
UACC-62 melanoma = tested on: UACC-62 melanoma
SK-MEL-2 melanoma = tested on: SK-MEL-2 melanoma
NCI-H226 lung = tested on: NCI-H226 lung
T-47D breast = tested on: T-47D breast
MDA-N = tested on: MDA-N
HOP-62 NSCLC = tested on: HOP-62 NSCLC
786-0 renal = tested on: 786-0 renal
HCC-2998 colon = tested on: HCC-2998 colon
RXF 393 renal = tested on: RXF 393 renal
MALME-3M melanoma = tested on: MALME-3M melanoma
HT29 colon = tested on: HT29 colon
TK-10 renal = tested on: TK-10 renal
SF-268 CNS = tested on: SF-268 CNS
DU-145 prostate = tested on: DU-145 prostate
ACHN renal = tested on: ACHN renal
SNB-19 CNS = tested on: SNB-19 CNS
U251 CNS = tested on: U251 CNS
CCRF-CEM leukemia = tested on: CCRF-CEM leukemia
CAKI-1 renal = tested on: CAKI-1 renal
RPMI-8226 leukemia = tested on: RPMI-8226 leukemia
MOLT-4 leukemia = tested on: MOLT-4 leukemia
M14 melanoma = tested on: M14 melanoma
LOX IMVI melanoma = tested on: LOX IMVI melanoma
NCI-H460 lung = tested on: NCI-H460 lung
OVCAR-8 ovarian = tested on: OVCAR-8 ovarian
SN12C renal = tested on: SN12C renal
SK-MEL-5 melanoma = tested on: SK-MEL-5 melanoma
SF-539 CNS = tested on: SF-539 CNS
NCI-H522 lung = tested on: NCI-H522 lung
A498 renal = tested on: A498 renal
HOP-92 NSCLC = tested on: HOP-92 NSCLC

`CN1CC=C(C#CC(C)(C)O)CC1` showed a TGI (UO-31 renal) greater than 37.5 µM, a TGI (OVCAR-5 ovarian) greater than 37.5 µM and a TGI (IGROV1 ovarian) greater than 37.5 µM. The TGI (MDA-MB-231 breast) was greater than 37.5 µM, the TGI (MDA-MB-435) was greater than 37.5 µM and the TGI (KM12 colon) was greater than 37.5 µM. For the same compound, the TGI (OVCAR-4 ovarian) was greater than 37.5 µM, the TGI (HS 578T breast) was greater than 37.5 µM and the TGI (SF-295 CNS) was greater than 37.5 µM. The TGI (SK-MEL-28 melanoma) was greater than 37.5 µM, the TGI (HCT-15 colon) was greater than 37.5 µM and the TGI (HCT-116 colon) was greater than 37.5 µM. For the same compound, the TGI (NCI/ADR-RES ovarian) was greater than 37.5 µM, the TGI (COLO 205 colon) was greater than 37.5 µM and the TGI (HL-60(TB) leukemia) was greater than 37.5 µM. For the same compound, the TGI (MCF7 breast) was greater than 37.5 µM, the TGI (SW-620 colon) was greater than 37.5 µM and the TGI (NCI-H23 lung) was greater than 37.5 µM. It also gave a TGI (PC-3 prostate) greater than 37.5 µM, a TGI (SK-OV-3 ovarian) greater than 37.5 µM and a TGI (EKVX NSCLC) greater than 37.5 µM. It also gave a TGI (K-562 leukemia) greater than 37.5 µM, a TGI (BT-549 breast) greater than 37.5 µM and a TGI (SR leukemia) greater than 37.5 µM. The TGI (SNB-75 CNS) was greater than 37.5 µM, the TGI (A549 NSCLC) was greater than 37.5 µM and the TGI (UACC-257 melanoma) was greater than 37.5 µM. The TGI (OVCAR-3 ovarian) was greater than 37.5 µM, the TGI (UACC-62 melanoma) was greater than 37.5 µM and the TGI (SK-MEL-2 melanoma) was greater than 37.5 µM. For the same compound, the TGI (NCI-H226 lung) was greater than 37.5 µM, the TGI (T-47D breast) was greater than 37.5 µM and the TGI (MDA-N) was greater than 37.5 µM. The TGI (HOP-62 NSCLC) was greater than 37.5 µM, the TGI (786-0 renal) was greater than 37.5 µM and the TGI (HCC-2998 colon) was greater than 37.5 µM. The TGI (RXF 393 renal) was greater than 37.5 µM, the TGI (MALME-3M melanoma) was greater than 37.5 µM and the TGI (HT29 colon) was greater than 37.5 µM. The TGI (TK-10 renal) was greater than 37.5 µM, the TGI (SF-268 CNS) was greater than 37.5 µM and the TGI (DU-145 prostate) was greater than 37.5 µM. For the same compound, the TGI (ACHN renal) was greater than 37.5 µM, the TGI (SNB-19 CNS) was greater than 37.5 µM and the TGI (U251 CNS) was greater than 37.5 µM. For the same compound, the TGI (CCRF-CEM leukemia) was greater than 37.5 µM, the TGI (CAKI-1 renal) was greater than 37.5 µM and the TGI (RPMI-8226 leukemia) was greater than 37.5 µM. For the same compound, the TGI (MOLT-4 leukemia) was greater than 37.5 µM, the TGI (M14 melanoma) was greater than 37.5 µM and the TGI (LOX IMVI melanoma) was greater than 37.5 µM. For the same compound, the TGI (NCI-H460 lung) was greater than 37.5 µM, the TGI (OVCAR-8 ovarian) was greater than 37.5 µM and the TGI (SN12C renal) was greater than 37.5 µM. The TGI (SK-MEL-5 melanoma) was greater than 37.5 µM.
`O=C(c1ccc(Cl)c(Cl)c1)N(C(=S)OC12CC3CC(CC(C3)C1)C2)c1ccccc1` gave a TGI (SF-539 CNS) greater than 100 µM, a TGI (UO-31 renal) of 64.3 µM and a TGI (OVCAR-5 ovarian) greater than 100 µM. The TGI (MDA-MB-231 breast) was greater than 100 µM, the TGI (MDA-MB-435) was greater than 100 µM and the TGI (KM12 colon) was greater than 100 µM. It also gave a TGI (OVCAR-4 ovarian) greater than 100 µM, a TGI (HS 578T breast) greater than 100 µM and a TGI (SF-295 CNS) greater than 100 µM. It also gave a TGI (SK-MEL-28 melanoma) greater than 100 µM, a TGI (HCT-15 colon) greater than 100 µM and a TGI (HCT-116 colon) of 68.8 µM. It also gave a TGI (NCI/ADR-RES ovarian) greater than 100 µM, a TGI (COLO 205 colon) of 29.4 µM and a TGI (HL-60(TB) leukemia) of 69.9 µM. The TGI (NCI-H522 lung) was 41.7 µM, the TGI (MCF7 breast) was greater than 100 µM and the TGI (SW-620 colon) was greater than 100 µM. For the same compound, the TGI (NCI-H23 lung) was greater than 100 µM, the TGI (PC-3 prostate) was greater than 100 µM and the TGI (SK-OV-3 ovarian) was greater than 100 µM. The TGI (EKVX NSCLC) was 72.5 µM, the TGI (K-562 leukemia) was greater than 100 µM and the TGI (BT-549 breast) was greater than 100 µM. For the same compound, the TGI (SNB-75 CNS) was greater than 100 µM, the TGI (A549 NSCLC) was greater than 100 µM and the TGI (UACC-257 melanoma) was greater than 100 µM. For the same compound, the TGI (OVCAR-3 ovarian) was greater than 100 µM, the TGI (UACC-62 melanoma) was 98.5 µM and the TGI (SK-MEL-2 melanoma) was 40.5 µM. It also gave a TGI (NCI-H226 lung) greater than 100 µM, a TGI (T-47D breast) greater than 100 µM and a TGI (MDA-N) greater than 100 µM. For the same compound, the TGI (HOP-62 NSCLC) was greater than 100 µM, the TGI (786-0 renal) was greater than 100 µM and the TGI (HCC-2998 colon) was greater than 100 µM. It also gave a TGI (A498 renal) greater than 100 µM, a TGI (RXF 393 renal) greater than 100 µM and a TGI (MALME-3M melanoma) greater than 100 µM. For the same compound, the TGI (HT29 colon) was greater than 100 µM, the TGI (TK-10 renal) was greater than 100 µM and the TGI (SF-268 CNS) was greater than 100 µM. It also gave a TGI (DU-145 prostate) greater than 100 µM, a TGI (ACHN renal) greater than 100 µM and a TGI (SNB-19 CNS) greater than 100 µM. It also gave a TGI (U251 CNS) greater than 100 µM, a TGI (CCRF-CEM leukemia) greater than 100 µM and a TGI (CAKI-1 renal) greater than 100 µM. For the same compound, the TGI (HOP-92 NSCLC) was greater than 100 µM, the TGI (M14 melanoma) was 48.3 µM and the TGI (NCI-H460 lung) was greater than 100 µM. It also gave a TGI (OVCAR-8 ovarian) greater than 100 µM, a TGI (SN12C renal) greater than 100 µM and a TGI (SK-MEL-5 melanoma) of 40.1 µM.

— PubChem BioAssay (NCI)
